Data as given in patent EP0559845B1, “Use of compounds in preventing endotoxin shock” (priority 1991, dated 1992).
Entries after “also recorded” stand apart in the source; their conditions may differ.

Columns and labels:
mice (strain C57BL/10) = assay: Protection of mice against lethal endotoxemia; assay type: in vivo; conditions: for mice survived: intravenous
Method: (§1) Eight week old mice (strain C57BL/10) were allowed to rest for at least 7 days following their arrival and were sexually segregated and housed at 5 per cage with food and water ad libitum. Intravenous injection of a GTPase inhibiting compound (lipid X dissolved in saline as described above) and/or lipopolysaccharide was achieved by the retroorbital sinus route using a 27 gauge needle. No more than 0.1 ml of fluid was injected at a time. Just prior to injection, the mice were lightly anesthetized with ether. Following the injection, mice were observed every 0.5-6 hours and the time of death was recorded. In a few experiments, mice were injected by the intraperitoneal route with solutions of lipid X and/or lipopolysaccharide similar to those described above.
The lethal dose of E. coli endotoxin was determined both for the intravenous and for the intraperitoneal challenge. The lethal dose that killed 100% of the mice (LD100) was 250 µg intravenously and 500 µg intraperi toneally. (It is important to standardize each lot of endotoxin with each lot of mice.) To determine the approximate dose of lipid X needed to protect against a lethal challenge of endotoxin, mice were pretreated with lipid X intraperitoneally 2 hours before challenge with 1500 µg of endotoxin, which is 3 times the LD100 dose. Pretreatment of mice with lipid X appeared to prolong the time to death four-fold (from about 20 hours to 80 hours).
Because both lipid X and lipopolysaccharide (LPS) were given intraperitoneally in these preliminary experiments, the possibility existed of slow or variable rates of absorption. Consequently, an intravenous challenge route was selected to test for protective efficiency. Mice were given 750 µg of lipid X from 24 hours prior to 6 hours after endotoxin challenge with 1-2 LD100 doses. Forty-one percent of mice receiving 500 µg lipid X from 6 hours prior to endotoxin challenge through 1 hour after LPS challenge survived. When a lower endotoxin challenge dose (250 µg) was used, 81% of the mice survived if treated with lipid X from 1 hour prior to through 4 hours post LPS challenge. […] Perhaps this is due to the fact that those animals were anesthetized twice in a short period and received the toxic endotoxin challenge before receiving lipid X. The reversal of the lethal toxicity of endotoxin at times as late as 4 hours after endotoxin challenge is especially striking. […] By 4 hours after injection of the 250 µg of intravenous lipopolysaccharide, the mice had stopped normal behavior, i.e. nesting had stopped, decreased spontaneous activity occurred, and the animals were shaking.

sheep = assay: Toxicity of lipid X in sheep; assay type: in vivo; conditions: 40 sheep injected
Method: Mixed breed sheep weighing 30-70 kg were obtained from the University of Wisconsin Experimental Farms. Sheep were prepared as follows: at least 24 hours before each experiment, catheters were percutaneously placed in the pulmonary artery. Any other catheterizations that were required for infusion were done at this time. All studies were performed on awake, unrestrained sheep placed in portable stanchions with food and water ad libitum. Electronically calculated pulmonary artery pressures as well as heart rates were recorded at various intervals on a polygraph. To ensure a stable baseline prior to the injection of test compounds, approximately 1 hour of baseline measurements were recorded.
(§2) To test for the toxicity of lipid X in mice, C57BL/10 mice were challenged with 750, 2000 or 5000 µg of lipid X intraperitoneally (12 mice) or with 750, 1500 or 3000 µg intravenously (7 mice). […] Consequently, lipid X appeared to be nontoxic in mice, as in sheep.
About 30 sheep were examined by Burhop with regard to lipid X toxicity.

C57BL/10 mice = assay: Toxicity of lipid X in mice; assay type: in vivo
Method: as §1, §2

[1] = test system: LPS-induced GTPase activity in membranes isolated from RAW 264.7 cells; assay: GTPase assay: effect of compounds on LPS-stimulated GTPase activity in macrophage membranes (release of 32Pi from γ-32P-GTP); assay type: biochemical
Source text: We sought to directly evaluate the influence of LPS on possible G-protein function by examining agonist-enhanced GTPase activity, which is a hallmark of G-protein action. Moreover, because macrophages are one of the key cell types in the release of toxic mediators following an LPS challenge, we first assessed the capacity of LPS to influence GTPase activity in membranes isolated from RAW 264.7 cells, which is a highly LPS-responsive macrophage cell line. In these studies, GTPase activity was measured using a standard assay. The activity was determined using 2 µM γ-^32P-GTP in the presence of 0.1 mM ATP and 0.2 mM of the non-hydrolyzable ATP analog, AMPPNP, in order to minimize nonspecific nucleotidase activity in the membrane preparations.
The reaction is initiated by the addition of the γ-^32P-GTP and the mixture incubated at 30-37°C for 15 to 30 minutes. The reaction is terminated by the addition of 500µl of 5% trichloroacetic acid and 500µl of 0.1gm/ml acid-activated charcoal in 5% trichloroacetic acid. The samples are centrifuged at 14,000xg for 10 minutes, and a 550µl aliquot of the supernatant is removed for scintillation counting. The supernatant will contain the released ^32Pi. The extent of GTPase inhibition is measured by the decrease in the amount of ^32Pi released from γ-^32P-GTP. Appropriate controls include mixtures with one of the following omitted: (i) test compound, (ii) endotoxin, and (iii) ATP, ADP or AMPPNP.
The membranes are resuspended in 20 mM HEPES (pH 7.4), 1 mM dithiothreitol, 1 mM EDTA and 10 µg leupeptin/ml. Aliquots are stored at -70°C until assayed.

CCCCCCCCCCC[C@@H](O)CC(=O)N[C@H]1[C@@H](OP(=O)(O)O)O[C@H](CO)[C@@H](O)[C@@H]1OC(=O)C[C@H](O)CCCCCCCCCCC [lipid X]
mice survived (mice (strain C57BL/10); endotoxin challenge 250 µg, lipid X from 1 hour prior through 4 hours post LPS challenge): 81% | mice survived (mice (strain C57BL/10); printed '500 µg lipid X', from 6 hours prior to endotoxin challenge through 1 hour after): Forty-one | prevention of lethal endotoxicity on late treatment (mice (strain C57BL/10); lipid X given 6 hours after lipopolysaccharide): appears to prevent lethal endotoxicity | prolongation of the time to death (mice (strain C57BL/10); lipid X intraperitoneally 2 hours before 1500 µg endotoxin): four-fold | time to death (mice (strain C57BL/10); lipid X intraperitoneally 2 hours before 1500 µg endotoxin (3 times LD100), control about 20 hours): ~80 h | adverse complications of lipid X administration (sheep): no serious adverse complications | survival after lipid X alone (C57BL/10 mice; 750, 1500 or 3000 µg intravenously (7 mice)): All these mice lived | survival after lipid X alone (C57BL/10 mice; 750, 2000 or 5000 µg intraperitoneally (12 mice)): All these mice lived | inhibition of LPS-stimulated GTPase activity [1]: dose-dependent inhibition; also recorded: dose-dependently inhibiting | half-maximal inhibition of LPS-enhanced GTPase activity ([1]; LPS 300 µg/ml or 1 mg/ml): 23 to 1 molar ratio of lipid X to LPS
